System: yeast genes (level of expressed mRNA)
Assay: DNA chip analysis of expressed mRNA of yeast genes after 2 h culture with a toxic chemical substance
Type: cell-based, Saccharomyces cerevisiae S288C
Settings: for The level of expressed mRNA in the presence of chemical substance/ (ratio to absence): transport facilitation protein gene; for The level of expressed mRNA in the presence of chemical substance/: ratio to no chemical; for The level of expressed mRNA in the presence of chemical substance/ (ratio to absence of chemical substance): stress protein genes, DNA chip
Outline: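 S. cerevisiae S288C in YPD at 25 °C was exposed at log phase for 2 h to a growth-inhibiting, non-lethal concentration of the chemical. Poly(A) mRNA was reverse-transcribed with Cy3- or Cy5-dUTP and hybridized to a whole-genome yeast DNA chip (65 °C, >12 h). Values are fluorescence ratios versus untreated cells.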

sodium dodecylbenzosulfonate [(17)]
The level of expressed mRNA in the presence of chemical substance/ (ratio to absence) (yeast gene YKL188C): 1.1
The level of expressed mRNA in the presence of chemical substance/ (ratio to absence) (yeast gene YKL192C): 1.0
The level of expressed mRNA in the presence of chemical substance/The level of expressed mRNA in the absence of chemical substance (yeast gene YKL193C): 1.2
The level of expressed mRNA in the presence of chemical substance/ (ratio to absence) (yeast gene YKL209C): 1.1
The level of expressed mRNA in the presence of chemical substance/ (ratio to absence) (yeast gene YKL217W): 1.7
The level of expressed mRNA in the presence of chemical substance/in the absence of chemical substance (yeast gene YKL218C): 2.5
The level of expressed mRNA in the presence of chemical substance/ (ratio to absence) (yeast gene YKL221W): 0.8
The level of expressed mRNA in the presence of chemical substance/ (yeast gene YKR007W): 0.8
The level of expressed mRNA in the presence of chemical substance/ (in its absence), gene YKR009C (yeast gene YKR009C, ratio of DNA chip fluorescence intensity to that without chemical substance): 1.9
The level of expressed mRNA in the presence of chemical substance/ (yeast gene YKR020W): 1.3
The level of expressed mRNA in the presence of chemical substance/ (in its absence), gene YKR034W (yeast gene YKR034W, ratio of DNA chip fluorescence intensity to that without chemical substance): 0.8
The level of expressed mRNA in the presence of chemical substance/ (ratio to absence) (yeast gene YKR039W): 0.9
The level of expressed mRNA in the presence of chemical substance/ (ratio to absence of chemical substance) (yeast gene YKR053C): 2.8
The level of expressed mRNA in the presence of chemical substance/ in its absence, gene YKR058W (yeast gene YKR058W, energy system protein genes, 2 h culture with the chemical, ratio to control without chemical): 0.8
The level of expressed mRNA in the presence of chemical substance/ (yeast gene YKR071C): 0.9
The level of expressed mRNA in the presence of chemical substance/in the absence of chemical substance (yeast gene YKR097W): 1.1
The level of expressed mRNA in the presence of chemical substance/ (ratio to absence) (yeast gene YKR105C): 0.8
The level of expressed mRNA in the presence of chemical substance/ (ratio to absence) (yeast gene YKR106W): 0.9
The level of expressed mRNA in the presence of chemical substance/ (yeast gene YLL025W): 1.0
The level of expressed mRNA in the presence of chemical substance/ (ratio to absence) (yeast gene YLL028W): 1.2
The level of expressed mRNA in the presence of chemical substance/ (ratio to absence) (yeast gene YLL055W): 1.1
The level of expressed mRNA in the presence of chemical substance/ (ratio to absence) (yeast gene YLL061W): 0.6
The level of expressed mRNA in the presence of chemical substance/ (yeast gene YLL062C): 0.9
The level of expressed mRNA in the presence of chemical substance/ (in its absence), gene YLR006C (yeast gene YLR006C, ratio of DNA chip fluorescence intensity to that without chemical substance): 1.6
The level of expressed mRNA in the presence of chemical substance/ (ratio to absence of chemical substance) (yeast gene YLR006C): 1.6
The level of expressed mRNA in the presence of chemical substance/in the absence of chemical substance (yeast gene YLR027C): 1.3
The level of expressed mRNA in the presence of chemical substance/ (ratio to absence) (yeast gene YLR092W): 1.0
The level of expressed mRNA in the presence of chemical substance/ (yeast gene YLR108C): 1.0
The level of expressed mRNA in the presence of chemical substance/The level of expressed mRNA in the absence of chemical substance (yeast gene YLR120C): 3.5
The level of expressed mRNA in the presence of chemical substance/in the absence of chemical substance (yeast gene YLR133W): 1.1
The level of expressed mRNA in the presence of chemical substance/The level of expressed mRNA in the absence of chemical substance (yeast gene YLR136C): 1.8
The level of expressed mRNA in the presence of chemical substance/ (yeast gene YLR145W): 1.0
The level of expressed mRNA in the presence of chemical substance/in the absence of chemical substance (yeast gene YLR155C): 1.4
The level of expressed mRNA in the presence of chemical substance/ (yeast gene YLR156W): 1.1
The level of expressed mRNA in the presence of chemical substance/in the absence of chemical substance (yeast gene YLR158C): 1.4
The level of expressed mRNA in the presence of chemical substance/The level of expressed mRNA in the absence of chemical substance (yeast gene YLR178C): 2.0
The level of expressed mRNA in the presence of chemical substance/in the absence of chemical substance (yeast gene YLR195C): 0.9
The level of expressed mRNA in the presence of chemical substance/ (yeast gene YLR247C): 1.2
The level of expressed mRNA in the presence of chemical substance/The level of expressed mRNA in the absence of chemical substance (yeast gene YLR250W): 1.4
The level of expressed mRNA in the presence of chemical substance/ (yeast gene YLR267W): 1.2
The level of expressed mRNA in the presence of chemical substance/ (yeast gene YLR280C): 1.2
The level of expressed mRNA in the presence of chemical substance/ (yeast gene YLR290C): 1.3
The level of expressed mRNA in the presence of chemical substance/ in its absence, gene YLR295C (yeast gene YLR295C, energy system protein genes, 2 h culture with the chemical, ratio to control without chemical): 0.9
The level of expressed mRNA in the presence of chemical substance/ (ratio to absence), gene YLR295C (yeast gene YLR295C, mitochondria-located protein genes, 2 h culture with chemical): 0.9
The level of expressed mRNA in the presence of chemical substance/in the absence of chemical substance (yeast gene YLR303W): 1.5
The level of expressed mRNA in the presence of chemical substance/ (yeast gene YLR311C): 1.3
The level of expressed mRNA in the presence of chemical substance/The level of expressed mRNA in the absence of chemical substance (yeast gene YLR327C): 3.3
The level of expressed mRNA in the presence of chemical substance/in the absence of chemical substance (yeast gene YLR345W): 1.2
The level of expressed mRNA in the presence of chemical substance/ (ratio to absence) (yeast gene YLR348C): 1.1
The level of expressed mRNA in the presence of chemical substance/ (in its absence), gene YLR351C (yeast gene YLR351C, ratio of DNA chip fluorescence intensity to that without chemical substance): 1.3
The level of expressed mRNA in the presence of chemical substance/The level of expressed mRNA in the absence of chemical substance (yeast gene YLR356W): 1.1
The level of expressed mRNA in the presence of chemical substance/The level of expressed mRNA in the absence of chemical substance (yeast gene YLR362W): 1.2
The level of expressed mRNA in the presence of chemical substance/ (in its absence), gene YLR375W (yeast gene YLR375W, ratio of DNA chip fluorescence intensity to that without chemical substance): 1.0
The level of expressed mRNA in the presence of chemical substance/ (ratio to absence) (yeast gene YLR378C): 0.9
The level of expressed mRNA in the presence of chemical substance/The level of expressed mRNA in the absence of chemical substance (yeast gene YLR391W): 1.4
The level of expressed mRNA in the presence of chemical substance/The level of expressed mRNA in the absence of chemical substance (yeast gene YLR429W): 1.0
The level of expressed mRNA in the presence of chemical substance/in the absence of chemical substance (yeast gene YML004C): 1.5
The level of expressed mRNA in the presence of chemical substance/ (yeast gene YML068W): 1.0
The level of expressed mRNA in the presence of chemical substance/ (ratio to absence) (yeast gene YML116W): 1.0
The level of expressed mRNA in the presence of chemical substance/ in its absence, gene YML129C (yeast gene YML129C, energy system protein genes, 2 h culture with the chemical, ratio to control without chemical): 1.3
The level of expressed mRNA in the presence of chemical substance/ (ratio to absence), gene YML129C (yeast gene YML129C, mitochondria-located protein genes, 2 h culture with chemical): 1.3
The level of expressed mRNA in the presence of chemical substance/in the absence of chemical substance (yeast gene YML131W): 2.5
The level of expressed mRNA in the presence of chemical substance/The level of expressed mRNA in the absence of chemical substance (yeast gene YMR004W): 0.9
The level of expressed mRNA in the presence of chemical substance/ (ratio to absence), gene YMR023C (yeast gene YMR023C, mitochondria-located protein genes, 2 h culture with chemical): 1.1
The level of expressed mRNA in the presence of chemical substance/ (yeast gene YMR034C): 1.8
The level of expressed mRNA in the presence of chemical substance/ (yeast gene YMR041C): 0.8
The level of expressed mRNA in the presence of chemical substance/ (ratio to absence) (yeast gene YMR056C): 1.0
The level of expressed mRNA in the presence of chemical substance/ (ratio to absence) (yeast gene YMR058W): 0.6
The level of expressed mRNA in the presence of chemical substance/The level of expressed mRNA in the absence of chemical substance (yeast gene YMR094W): 1.0
The level of expressed mRNA in the presence of chemical substance/The level of expressed mRNA in the absence of chemical substance (yeast gene YMR104C): 2.8
The level of expressed mRNA in the presence of chemical substance/ (yeast gene YMR178W): 1.1
The level of expressed mRNA in the presence of chemical substance/ (ratio to absence of chemical substance) (yeast gene YMR186W): 0.7
The level of expressed mRNA in the presence of chemical substance/ (ratio to absence) (yeast gene YMR203W): 0.8
The level of expressed mRNA in the presence of chemical substance/The level of expressed mRNA in the absence of chemical substance (yeast gene YMR219W): 1.1
The level of expressed mRNA in the presence of chemical substance/The level of expressed mRNA in the absence of chemical substance (yeast gene YMR226C): 1.6
The level of expressed mRNA in the presence of chemical substance/ (yeast gene YMR253C): 1.2
The level of expressed mRNA in the presence of chemical substance/ in its absence, gene YMR267W (yeast gene YMR267W, energy system protein genes, 2 h culture with the chemical, ratio to control without chemical): 0.9
The level of expressed mRNA in the presence of chemical substance/ (ratio to absence), gene YMR267W (yeast gene YMR267W, mitochondria-located protein genes, 2 h culture with chemical): 0.9
The level of expressed mRNA in the presence of chemical substance/ in its absence, gene YMR267W (yeast gene YMR267W, ratio of DNA chip fluorescence intensity to that without chemical substance): 0.9
The level of expressed mRNA in the presence of chemical substance/The level of expressed mRNA in the absence of chemical substance (yeast gene YMR275C): 0.9
The level of expressed mRNA in the presence of chemical substance/The level of expressed mRNA in the absence of chemical substance (yeast gene YMR276W): 1.2
The level of expressed mRNA in the presence of chemical substance/ (in its absence), gene YMR278W (yeast gene YMR278W, ratio of DNA chip fluorescence intensity to that without chemical substance): 1.0
The level of expressed mRNA in the presence of chemical substance/ (in its absence), gene YMR293C (yeast gene YMR293C, ratio of DNA chip fluorescence intensity to that without chemical substance): 0.8
The level of expressed mRNA in the presence of chemical substance/The level of expressed mRNA in the absence of chemical substance (yeast gene YMR314W): 1.3
The level of expressed mRNA in the presence of chemical substance/The level of expressed mRNA in the absence of chemical substance (yeast gene YNL006W): 1.0
The level of expressed mRNA in the presence of chemical substance/The level of expressed mRNA in the absence of chemical substance (yeast gene YNL007C): 1.1
The level of expressed mRNA in the presence of chemical substance/ (in its absence), gene YNL025C (yeast gene YNL025C, ratio of DNA chip fluorescence intensity to that without chemical substance): 0.7
The level of expressed mRNA in the presence of chemical substance/ (ratio to absence) (yeast gene YNL055C): 1.2
The level of expressed mRNA in the presence of chemical substance/ (ratio to absence of chemical substance) (yeast gene YNL064C): 0.7
The level of expressed mRNA in the presence of chemical substance/in the absence of chemical substance (yeast gene YNL071W): 1.0
The level of expressed mRNA in the presence of chemical substance/ (ratio to absence), gene YNL073W (yeast gene YNL073W, mitochondria-located protein genes, 2 h culture with chemical): 0.8
The level of expressed mRNA in the presence of chemical substance/The level of expressed mRNA in the absence of chemical substance (yeast gene YNL093W): 3.0
The level of expressed mRNA in the presence of chemical substance/ (yeast gene YNL122C): 1.0
The level of expressed mRNA in the presence of chemical substance/ (ratio to absence) (yeast gene YNL142W): 1.0
The level of expressed mRNA in the presence of chemical substance/ (in its absence), gene YNL192W (yeast gene YNL192W, ratio of DNA chip fluorescence intensity to that without chemical substance): 2.3

Reference: patent publication US20050112573A1, “Method of detecting toxic substance” (priority 2001, published 2005)
